The values below are quoted from earlier work in patent publication US20110212189A1, “GASTRORETENTIVE ORAL HIGH DOSE ZINC PREPARATIONS” (ADEONA PHARMACEUTICALS, INC., priority 2009, published 2011).

The conditions of this data set: 50 mg elemental zinc taken with food.

As for `O=S(=O)([O-])[O-].[Zn+2]` [zinc sulphate], the nausea/vomiting effects entry is given as “same effects have been observed”.
